The supplement of paper PMC5762512

How the values were obtained:
Assay in all cases: IC50 cell viability (Alamar Blue, 96 h)
CAKI-1 = tested on: CAKI-1
Experimental: (§1)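 Cells in log-phase growth were seeded in 96-well plates and treated with drug for 96 h at 37°C using 8-point serial dilutions from 0.0025 to 10 µM. Viability was read by Alamar Blue fluorescence after 6 h and normalised to positive and vehicle (DMSO) controls. IC50 values were fitted in ActivityBase; the value given is the mean of two independent experiments.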

PER-704 = tested on: PER-704
Experimental: as §1

RPMI2650 = tested on: RPMI2650
Experimental: as §1

PER-624 = tested on: PER-624
Experimental: as §1

WI-38 = tested on: WI-38
Experimental: as §1

PER-403 = tested on: PER-403
Experimental: as §1

P896-CL = tested on: P896-CL
Experimental: as §1

HCC2429 = tested on: HCC2429
Experimental: as §1

8645 = tested on: 8645
Experimental: as §1

HS-27 = tested on: HS-27
Experimental: as §1

A549 = tested on: A549
Experimental: as §1

PER-535 = tested on: PER-535
Experimental: as §1

10326 = tested on: 10326
Experimental: as §1

PER-891 = tested on: PER-891
Experimental: as §1

PER-536 = tested on: PER-536
Experimental: as §1

TC797 = tested on: TC797
Experimental: as §1

TY82 = tested on: TY82
Experimental: as §1

11060 = tested on: 11060
Experimental: as §1

14169 = tested on: 14169
Experimental: as §1

PER-712 = tested on: PER-712
Experimental: as §1

Row | SMILES | IC50 cell viability (CAKI-1) [nM] | IC50 cell viability (PER-704) [nM] | IC50 cell viability (RPMI2650) [nM] | IC50 cell viability (PER-624) [nM] | IC50 cell viability (WI-38) [nM] | IC50 cell viability (PER-403) [nM] | IC50 cell viability (P896-CL) [nM] | IC50 cell viability (HCC2429) [nM] | IC50 cell viability 8645 [nM] | IC50 cell viability (HS-27) [nM] | IC50 cell viability (A549) [nM] | IC50 cell viability (PER-535) [nM] | IC50 cell viability 10326 [nM] | IC50 cell viability (PER-891) [nM] | IC50 cell viability (PER-536) [nM] | IC50 cell viability (TC797) [nM] | IC50 cell viability (TY82) [nM] | IC50 cell viability 11060 [nM] | IC50 cell viability 14169 [nM] | IC50 cell viability (PER-712) [nM]
1 | C#Cc1cccc(Nc2ncnc3cc(OCCOC)c(OCCOC)cc23)c1 [Erlotinib] | > 10000 | > 10000 | > 10000 | 3260 | 3120 | 8770 | 2580 | > 10000 | 1160 | 4470 | 2740 | > 10000 | > 10000 | 7100 | > 10000 | > 10000 | > 10000 | 8680 | > 10000 | > 10000
2 | Cc1sc2c(c1C)C(c1ccc(Cl)cc1)=N[C@@H](CC(=O)Nc1ccc(O)cc1)c1nnc(C)n1-2 [OTX-015] | 9360 | 440 | > 10000 | 4270 | 543 | 42.6 | 921 | 55.8 | 73.6 | 2450 | 784 | 622 | 6.97 | 6720 | 4260 | > 10000 | 137 | 194 | 35.1 | 939
3 | CC[C@@]1([C@@H]2O[C@@H]([C@H]3O[C@@](O)(CO)[C@H](C)C[C@@H]3C)C[C@@H]2C)CC[C@H]([C@]2(C)CC[C@]3(C[C@H](O)[C@@H](C)[C@@H]([C@@H](C)[C@@H](OC)[C@H](C)C(=O)O)O3)O2)O1 [Monensin] | > 10000 | 9240 | > 10000 | 1420 | 55 | 5580 | 6830 | 4880 | 4650 | 235 | 234 | > 10000 | 817 | 5760 | > 10000 | 4080 | 5070 | 3040 | 3510 | 7480
4 | COc1ccccc1S(=O)(=O)Nc1ccc2c(c1)CN(C)C(=O)N2 [PFI-1] | 7020 | 2160 | > 10000 | 2820 | 3340 | 623 | 2810 | 551 | 751 | 2940 | 287 | 2190 | 175 | 5220 | 5980 | > 10000 | 1580 | 804 | 444 | 1350
5 | Cc1cc(/C=C/c2ccc3cc(N(C)C)ccc3[n+]2C)c(C)n1-c1ccccc1 [Pyrvinium pamoate] | 906 | 198 | 421 | 188 | 256 | 199 | 304 | 173 | 268 | 263 | 95 | 260 | 230 | 396 | 261 | 165 | 206 | 167 | 249 | 277
6 | Cc1csc(-c2nnc(Nc3ccc(Oc4ncccc4-c4ccnc(N)n4)cc3)c3ccccc23)c1 [AMG-900] | > 10000 | > 10000 | > 10000 | > 10000 | 7360 | < 2.5 | 5020 | 7.26 | > 10000 | > 10000 | 6.42 | 112 | 3.75 | > 10000 | > 10000 | > 10000 | > 10000 | 98.1 | 3.94 | > 10000
